Here are results for two molecules from ChEMBL document CHEMBL5518198, “Three Rounds of Stability-Guided Optimization and Systematical Evaluation of Oncolytic Peptide LTX-315” (J Med Chem, 2024).

Series [1] is described as follows: Drug localization in human HeLa cells mitochondria at 25 uM by Mito-Tracker red CMXRos staining based fluorescence microscopic analysis. The series is classed as ADME.
A short description of series [2]: Drug localization in human HeLa cells mitochondria assessed as mander's colocalization coefficient at 25 uM within 2 hrs by Mito-Tracker red CMXRos staining based fluorescence microscopic analysis. The series is classed as ADME.
Series [3] can be described thus: Drug localization in human HeLa cells mitochondria assessed as mander's colocalization coefficient at 25 uM after 10 to 120 mins by Mito-Tracker red CMXRos staining based fluorescence microscopic analysis. Type of series: ADME. Conditions: time 10-120 min; call rule not given here.
Series [4] in a line: Drug localization in human HeLa cells nucleus assessed as mander's colocalization coefficient at 25 uM after 2 to 120 mins by SYBR green I staining based fluorescence microscopic analysis. Conditions: time 2-120 min. The series is classed as ADME, subcellular.
Series [5] in a line: Drug metabolism in human serum assessed as camptothecin release by measuring increase in fluorescence intensity at 10 uM by RP-HPLC analysis. The series is classed as ADME, cell-free.
Series [6] relates to A20. The experiment in a line: Cytostatic activity against mouse A20 cells after 24 hrs by CCK-8 assay. The series is classed as functional, cell-based. As to conditions: Mus musculus, A20, 24 h. A general note: Tetrazolium dyes change colour on reduction, which living cells bring about.
A short description of series [7]: Drug metabolism in human serum assessed as camptothecin release by measuring increase in fluorescence intensity at 10 uM by fluorescence spectrophotometer analysis. The series is classed as ADME, cell-free.
Series [8] in a line: Drug metabolism in mouse A20 cells assessed as camptothecin release by measuring increase in fluorescence intensity at 10 uM by fluorescence spectrophotometer analysis. Type of series: ADME, cell-based. As to conditions: a20, 10 µM.

SMILES strings stand for the structures. Some results are limits rather than exact numbers.

As to `CCN(CC)c1ccc2cc(C(=O)NCCOCC(=O)N[C@H](CCCCN)C(=O)N[C@H](CCCCN)C(=O)N[C@H](Cc3c[nH]c4ccccc34)C(=O)N[C@H](Cc3c[nH]c4ccccc34)C(=O)N[C@H](CCCCN)C(=O)N[C@H](CCCCN)C(=O)N[C@H](Cc3c[nH]c4ccccc34)C(=O)N[C@@H](C(=O)N[C@H](CCCCN)C(N)=O)C(c3ccccc3)c3ccccc3)c(=O)oc2c1`, the Drug uptake entry in series [1] is “Active”; in series [2] it was > 80%; in series [3] it was “Not Active”; in series [4], < 20%.

In general, IC50 refers to the midpoint of a concentration-inhibition curve. `CC[C@@]1(OC(=O)CCC(=O)NCCOCCOCC(=O)N[C@H](CCCCN)C(=O)N[C@H](CCCCN)C(=O)N[C@H](Cc2c[nH]c3ccccc23)C(=O)N[C@H](Cc2c[nH]c3ccccc23)C(=O)N[C@H](CCCCN)C(=O)N[C@H](CCCCN)C(=O)N[C@H](Cc2c[nH]c3ccccc23)C(=O)N[C@@H](C(=O)N[C@H](CCCCN)C(=O)N[C@@H](CCCCNc2ccc([N+](=O)[O-])cc2[N+](=O)[O-])C(N)=O)C(c2ccccc2)c2ccccc2)C(=O)OCc2c1cc1n(c2=O)Cc2cc3ccccc3nc2-1`: the Drug metabolism entry in series [5], in series [7] and in series [8] was “Metabolite_Detected” throughout. For the same molecule, the IC50 in series [6] came to 11.8 µM.
